According to patent US20250120988A1, “SMALL MOLECULE COMPOUND FOR TREATING ISCHEMIC STROKE, ITS PREPARATION METHOD, AND APPLICATION” (SHANGHAI SIXTH PEOPLE'S HOSPITAL, priority 2023, published 2025):

System: primary cortical neurons
Experiment: Calcein-PI cell death staining of primary neurons under oxygen-glucose deprivation (OGD)
Type: cell-based, mice
Settings: 10 μM; primary cultured neurons; OGD 1 hour, pH 7.0
Experimental: Figure a illustrates cortical neurons staining from wild-type (ASIC1a+/+) and gene-deficient (ASIC1a−/−) mice primary cultures in the calcein-PI staining experiment. Blue green represents viable cells, and red represents dead cell nuclei. 10 μM CGS19755 and 10 μM LK-2 were added respectively in the cell culture medium under pH 7.0 conditions with OGD to be treated for 1 hour. Figure c illustrates, after being treated in the same experimental groups as Figure a, the analysis of each group of LDH of relative release levels. Figure d illustrates PI staining of ASIC1a-transfected CHO cells after 1 hour of treatment with pH 7.0 and 500 μM glutamate (Glu). […]
Taking into consideration that in addition to ASIC1a, neurons also express multiple membrane proteins that can be activated and lead to cell death during OGD, in order to more accurately verify that cell death is caused by glutamate activation of ASIC1a and that LK-2 indeed competitively antagonizes the glutamate so as to reduce cell death, we conducted the following experiment: CHO cells transfected with ASIC1a-GFP were divided into a control group (500 μM glutamate) and a drug intervention group (500 μM glutamate+10 μM LK-2). […] Live and dead cell nuclei were determined by observing under a 40× objective using excitation wavelengths of 488 nm and 546 nm. The number of stained cell nuclei was counted using Image-J software.

## O=C(O)C1CN(C(c2ccccc2)P(=O)(O)O)CCN1 (stereo not shown) [LK-2]
  reduction of cell death rate: 87%
